{
  "source": "patent US7977082B2",
  "about": "“Isomaltulose synthases, polynucleotides encoding them and uses therefor” (The University of Queensland of St. Lucia, priority 2001, dated 2011)",
  "key": {"E. rhapontici WAC2928": {"system": "E. rhapontici WAC2928", "assay": "Growth in BP medium with different sugars", "type": "cell-based", "conditions": "2% sugar added to BP medium, 18 h incubation at 30°C", "method": "(§1) Isomaltulose production was tested using cells grown in LB and in a basal peptone medium (BP, comprising 1% BBL gelysate peptone and 0.5% NaCl, adjusted to pH 7.0 prior to autoclaving). Glucose, fructose, sucrose, lactose, maltose or isomaltulose was added to the cooled media, from a filter-sterilised stock. The media containing 4% (w/v) sucrose are referred to as SLB and SBP respectively.\n(§2) Inoculum of 100 μL from a culture grown for 12 h in LB medium was added to 25 mL growth medium in a 250 mL flask. After 18 h at 30° C. on a shaker at 225 rpm, OD600 was used to measure growth. Cultures were diluted with growth medium to OD600=1.50 (approximately half the cell density of a saturated culture in SLB). Aliquots of 1 mL were harvested by centrifugation at 5000×g for 10 min and washed three times with 0.1 M citrate/phosphate buffer (pH 6.0). The cell pellets were resuspended in 0.4 mL of 0.1 M citrate/phosphate buffer (pH 6.0) containing 50% sucrose (w/v). Culture supernatant was filtered through a 0.2 μm filter (Pall Acrodisc), and 0.1 mL was mixed with 0.4 mL of 0.1 M citrate/phosphate buffer (pH 6.0) containing 50% sucrose (w/v), for parallel testing of culture filtrate and harvested cells in the SI assay."}, "P. dispersa 68J": {"system": "P. dispersa 68J", "assay": "Growth in BP medium with different sugars", "type": "cell-based", "conditions": "2% sugar added to BP medium, 18 h incubation at 30°C", "method": "as §1, §2"}, "[1]": {"target": "T1, Pantoea dispersa 68J sucrose isomerase (SI), mature, SEQ ID NO: 10, carboxy-terminal 6×His tag (SEQ ID NO: 52) (Pantoea dispersa, UniProt Q6XNK6)", "T1 sequence (Q6XNK6 34-598)": "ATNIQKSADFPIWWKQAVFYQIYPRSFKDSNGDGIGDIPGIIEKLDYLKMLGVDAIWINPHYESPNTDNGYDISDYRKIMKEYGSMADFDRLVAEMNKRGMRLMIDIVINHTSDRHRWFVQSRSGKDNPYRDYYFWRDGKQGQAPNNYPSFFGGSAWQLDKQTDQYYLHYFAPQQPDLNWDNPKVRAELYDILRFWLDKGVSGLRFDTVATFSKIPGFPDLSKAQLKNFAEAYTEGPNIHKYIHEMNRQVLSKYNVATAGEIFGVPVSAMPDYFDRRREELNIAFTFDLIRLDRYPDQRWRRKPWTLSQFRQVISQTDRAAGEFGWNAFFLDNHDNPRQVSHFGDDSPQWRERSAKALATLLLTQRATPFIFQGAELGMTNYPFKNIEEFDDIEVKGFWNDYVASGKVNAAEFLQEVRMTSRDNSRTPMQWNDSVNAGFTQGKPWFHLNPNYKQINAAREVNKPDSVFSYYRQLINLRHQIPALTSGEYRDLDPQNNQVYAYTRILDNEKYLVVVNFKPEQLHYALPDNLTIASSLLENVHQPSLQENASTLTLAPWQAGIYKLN", "assay": "Sucrose isomerase kinetics, purified SI from P. dispersa 68J (isomaltulose production), with or without glucose/fructose", "type": "biochemical", "conditions": "glucose vs fructose, 0.277 M, various sucrose concentrations", "method": "(§3) The pET24b vector introduces a carboxy-terminal 6×His tag (SEQ ID NO: 52) on expressed proteins, which were purified by adsorption to Ni-NTA agarose (Qiagen) and elution with 25 mM NaH2PO4, 150 mM NaCl, 125 mM imidazole buffer (pH8.0) following the manufacturer's instructions. For storage, the eluted solution was diluted with 50% glycerol. The purity of SI proteins was tested by SDS-PAGE as described below. A batch procedure using Ni-NTA agarose in suspension yielded predominantly (80-95%) SI with a background of several other protein bands. A procedure using Ni-NTA agarose in adsorption columns yielded preparations containing a single protein band. Unless otherwise specified, this is the form of the purified SI enzymes used for biochemical characterisation.\n(§4) Enzyme activities were measured by incubating 5 μl of purified enzyme with 95 μL of sucrose solution at a final concentration of 584 mM in 0.1 M citrate/phosphate buffer (pH 6.0) at 30° C. Sugar profiles in the reaction mix were analysed at intervals by CE as described previously. One unit (U) of SI activity was defined as the amount of enzyme that could release 1 μmol of isomaltulose in one minute at the initial stage of the reaction.\n(§5) SI activity was measured by incubating the purified enzyme with different sucrose concentrations (3, 6, 15, 58, 146, 292, 584, 877, 1169 and 1461 mM) under standard assay conditions, and also with addition of glucose, fructose or both to a final concentration of 277 mM. Data were analyzed according to the method of Lineweaver and Burk (Voet and Voet, 1995) to calculate Km and Vmax values."}, "[2]": {"target": "T2, Klebsiella sp. 14S sucrose isomerase (SI), carboxy-terminal 6×His tag (SEQ ID NO: 52) (Klebsiella planticola, UniProt Q6XKX6)", "T2 sequence (Q6XKX6 29-598)": "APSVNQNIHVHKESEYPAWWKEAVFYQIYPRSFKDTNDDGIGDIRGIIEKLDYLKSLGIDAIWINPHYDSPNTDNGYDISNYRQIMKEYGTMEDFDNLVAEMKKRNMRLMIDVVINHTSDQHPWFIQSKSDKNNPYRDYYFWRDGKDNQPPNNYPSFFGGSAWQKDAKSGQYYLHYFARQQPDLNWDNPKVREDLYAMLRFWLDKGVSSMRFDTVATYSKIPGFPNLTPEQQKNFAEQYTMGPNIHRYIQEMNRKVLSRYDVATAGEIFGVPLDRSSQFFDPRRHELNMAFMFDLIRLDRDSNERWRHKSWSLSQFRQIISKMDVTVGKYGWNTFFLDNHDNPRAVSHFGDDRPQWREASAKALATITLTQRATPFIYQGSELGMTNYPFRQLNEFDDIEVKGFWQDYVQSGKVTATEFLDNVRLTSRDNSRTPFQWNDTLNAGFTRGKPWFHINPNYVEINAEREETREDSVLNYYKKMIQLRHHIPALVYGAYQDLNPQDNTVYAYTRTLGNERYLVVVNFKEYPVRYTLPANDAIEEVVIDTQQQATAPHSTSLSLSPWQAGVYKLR", "assay": "Sucrose isomerase kinetics, purified SI from Klebsiella sp. 14S (isomaltulose production), with or without glucose/fructose", "type": "biochemical", "conditions": "glucose vs fructose, 0.277 M, various sucrose concentrations", "method": "as §3, with “Unless otherwise specified, this is the form of the purified SI enzymes used for biochemical characterisation.” left out\nEnzyme activities were measured by incubating 5 μl of purified enzyme with 95 μL of sucrose solution at a final concentration of 584 mM in 0.1 M citrate/phosphate buffer (pH 6.0) at 30° C. Sugar profiles in the reaction mix were analysed at intervals by CE as described previously. […]\nas §5"}, "[3]": {"system": "E. rhapontici sucrose isomerase (SI)", "conditions": "Nagai et al., 1994; Véronèse and Perlot, 1998; cited from earlier work"}, "[4]": {"system": "K. plymuthica sucrose isomerase (SI)", "conditions": "Nagai et al., 1994; Véronèse and Perlot, 1998; cited from earlier work"}, "[5]": {"system": "P. rubrum sucrose isomerase (SI)", "conditions": "Nagai et al., 1994; Véronèse and Perlot, 1998; cited from earlier work"}, "[6]": {"system": "P. mesoacidophila sucrose isomerase (SI)", "conditions": "Nagai et al., 1994; Véronèse and Perlot, 1998; cited from earlier work"}, "[7]": {"system": "purified SI from Klebsiella sp. 14S", "assay": "Inhibition of isomaltulose production by glucose and fructose", "type": "biochemical", "conditions": "277 mM glucose or fructose", "method": "as §5"}, "[8]": {"system": "purified SI from P. dispersa 68J", "assay": "Inhibition of isomaltulose production by glucose and fructose", "type": "biochemical", "conditions": "277 mM glucose or fructose", "method": "as §5"}, "[9]": {"assay": "Conversion of sucrose to isomaltulose in transgenic sugarcane callus expressing SI genes", "type": "cell-based", "conditions": "cell extracts of transgenic sugarcane callus; 3 of 3 68J lines, 3 of 7 14S lines", "from_the_text": "The sucrose isomerase (SI) gene insert in the pET 24b vector was further cloned between the Ubi promoter from the maize ubi-l gene (Christensen and Quail, 1996, Transgen. Res. 5: 215-218) and the Agrobacterium nos terminator (Bevan et al., 1983, Nature 304: 183-187) to drive expression in sugarcane cells.\nPlasmids with the sucrose isomerase genes (pU3ZErw, pU3Z14s or pU3Z68J) and the aph A construct plasmid pEmuKN (as a selectable marker) were isolated by alkaline extraction (Sambrook et al., 1989, supra), and dissolved in TE buffer. Plasmid intactness and absence of genomic DNA or RNA were checked by gel electrophoresis and concentration was measured by spectrophotometry. The sucrose isomerase (UbiSI) gene construct and selectable marker construct were co-precipitated onto tungsten microprojectiles and introduced into sugarcane callus, followed by selection for transformed callus, and regeneration of transgenic plants, essentially described by Bower et al. (1996, Molec. Breed. 2: 239-249).\nPrecipitation reactions were conducted by adding the following at 4° C. in turn to a 1.5 mL microfuge tube: 5 μL pEmuKN plasmid DNA (1 mg/mL), 5 μL UbiSI plasmid DNA (1 μg/μL), 50 μL tungsten (Bio-Rad M10, 100 μg/μL), 50 μL CaCl2 (2.5M), 20 μL spermidine (100 mM free base). […]"}, "[10]": {"assay": "Assay of isolated (purified) SI enzyme activity", "type": "biochemical", "conditions": "purified fresh His-tagged enzymes", "method": "as §3, §4\nThe enzymes were incubated with sucrose at different pH ranging from 2.0 to 10.6. The solution of pH 2.0 was buffered in 0.2 M KCl; pH 3.0 to pH 9.0 were in 0.1 M citrate/phosphate buffer; pH 10.0 to pH 10.6 were in 0.2 M glycine buffer. The effect of temperature from 10° C. to 70° C. was measured at pH 6.0. […]"}, "[11]": {"assay": "Storage stability of purified SI proteins", "type": "physicochemical", "conditions": "elution buffer diluted with 50% glycerol", "method": "The purified fresh enzymes from SDS-PAGE had specific activities for isomaltulose production of: E. rhapontici: 35 U mg^−1 protein, Klebsiella sp.: 95 U mg^−1 protein and P. dispersa: 632 U mg^−1 protein. The purified SI from E. rhapontici lost function during overnight storage at −20° C. in elution buffer diluted with 50% glycerol. In contrast, the purified enzymes from 14S or P. dispersa retained 100% of the fresh enzyme efficiency for isomaltulose production after 6-month storage at −20° C., or 60% after 15-day storage at room temperature in the same buffer. Because of instability, the E. rhapontici SI was not characterised further in purified form. Cheetham et al., (1984) found substantial differences between E. rhapontici strains for SI stability in immobilized cells, and the enzyme from strain NCPPB 1578 was stable in purified form (Cheetham, 1984).\nas §3"}},
  "data": [
    {"molecule": "OC[C@H]1O[C@H](OC[C@H]2OC(O)(CO)[C@@H](O)[C@@H]2O)[C@H](O)[C@@H](O)[C@@H]1O", "note": "(stereo partly drawn) [isomaltulose, α-D-glucopyranosyl-1,6-D-fructofuranose]", "values": [
      {"measurement": "effect on growth of E. rhapontici WAC2928", "setting": "E. rhapontici WAC2928", "value": "substantially enhanced growth"},
      {"measurement": "effect on growth of P. dispersa 68J", "setting": "P. dispersa 68J", "value": "little effect"}
    ]},
    {"molecule": "OC[C@H]1OC(O)[C@H](O)[C@@H](O)[C@@H]1O", "note": "(some centres unmarked) [glucose]", "values": [
      {"measurement": "Relative inhibition", "setting": "[1]", "value": "stronger inhibition than fructose"},
      {"measurement": "Relative inhibition", "setting": "[2]", "value": "stronger inhibition than fructose"},
      {"measurement": "Inhibition of activity", "setting": "[3]", "value": "inhibit activity"},
      {"measurement": "Inhibition of activity", "setting": "[4]", "value": "inhibit activity"},
      {"measurement": "Inhibition of activity", "setting": "[5]", "value": "inhibit activity"},
      {"measurement": "Inhibition of activity", "setting": "[6]", "value": "inhibit activity"}
    ]},
    {"molecule": "O=C(CO)[C@@H](O)[C@H](O)[C@H](O)CO", "note": "[fructose]", "values": [
      {"measurement": "effect on growth of P. dispersa 68J", "setting": "P. dispersa 68J", "value": "supported faster growth"},
      {"measurement": "mode of inhibition of isomaltulose production", "setting": "[7]", "value": "competitive inhibitors"},
      {"measurement": "mode of inhibition of isomaltulose production", "setting": "[8]", "value": "competitive inhibitors"}
    ]},
    {"molecule": "Erwinia rhapontici: sucrose isomerase cloned from Erwinia rhapontici WAC2928, SEQ ID NO: 2, mature polypeptide SEQ ID NO: 4 (protein, listed as Erwinia rhapontici, not fully specified; sig_peptide (1)..(36); mat_peptide (37)..(632); MOD_RES (200)..(200) Any amino acid) MSSQELKAAVAIFLATTFSATSYQACSAGPDTAPSLTVQQSNALPTWWKQAVFYQVYPRSFKDTNGDGIGDLNGIIENLDYLKKLGIDAIWINPHYDSPNTDNGYDIRDYRKIMKEYGTMEDFDRLISEMKKRNMRLMIDIVINHTSDQHAWFVQSKSGKNNPYRDYYFWRDGKDGHAPNNYPSFFGGSAWEKDDKSGQYYLHYFAKQQPDLNWDNPKVRQDLYDMLRFWLDKGVXGLRFDTVATYSKIPNFPDLSQQQLKNFAEEYTKGPKIHDYVNEMNREVLSHYDIATAGEIFGVPLDKSIKFFDRRRNELNIAFTFDLIRLDRDADERWRRKDWTLSQFRKIVDKVDQTAGEYGWNAFFLDNHDNPRAVSHFGDDRPQWREHAAKALATLTLTQRATPFIYQGSELGMTNYPFKKIDDFDDVEVKGFWQDYVETGKVKAEEFLTNVRQTSRDNSRTPFQWDASKNAGFTSGTPWLKINPNYKEINSADQINNPNSVFNYYRKLINIRHDIPALTYGSYIDLAPDNNSVYAYTRTFGAEKYLVVINFKEEVMHYTLPGDLSINKVITENNSHTIVNKNDVEDPRGATSVCSPFQAQKRPGDPGYSAAHSIRFLPRFFASYRGDIHAFK", "values": [
      {"measurement": "isomaltulose peak relative to sucrose peak on the CE electrograph", "setting": "[9]", "value": "even lower isomaltulose levels than the 14S lines"},
      {"measurement": "specific activity for isomaltulose production", "setting": "[10]", "value": 35, "unit": "U mg^−1 protein"},
      {"measurement": "function after overnight storage at −20° C.", "setting": "[11]", "value": "lost function"}
    ]}
  ]
}
